Source: patent US11110089B2, “Pyridazinones and their use in the treatment of cancer” (THE UNITED STATES OF AMERICA, AS REPRESENTED BY THE …, priority 2015, dated 2021)

Key:
[1] = target: T1, recombinant thioredoxin reductase 1 (TrxR1) (Homo sapiens, UniProt Q16881); assay: Inhibition of recombinant TrxR1 (DTNB assay); format: biochemical; details: 15 nM TrxR1, 250 μM NADPH, 15 minutes incubation, 2.5 mM DTNB, O.D. at 412 nm; read-out: TrxR inhibition
T1 sequence (Q16881 151-649 limits assumed): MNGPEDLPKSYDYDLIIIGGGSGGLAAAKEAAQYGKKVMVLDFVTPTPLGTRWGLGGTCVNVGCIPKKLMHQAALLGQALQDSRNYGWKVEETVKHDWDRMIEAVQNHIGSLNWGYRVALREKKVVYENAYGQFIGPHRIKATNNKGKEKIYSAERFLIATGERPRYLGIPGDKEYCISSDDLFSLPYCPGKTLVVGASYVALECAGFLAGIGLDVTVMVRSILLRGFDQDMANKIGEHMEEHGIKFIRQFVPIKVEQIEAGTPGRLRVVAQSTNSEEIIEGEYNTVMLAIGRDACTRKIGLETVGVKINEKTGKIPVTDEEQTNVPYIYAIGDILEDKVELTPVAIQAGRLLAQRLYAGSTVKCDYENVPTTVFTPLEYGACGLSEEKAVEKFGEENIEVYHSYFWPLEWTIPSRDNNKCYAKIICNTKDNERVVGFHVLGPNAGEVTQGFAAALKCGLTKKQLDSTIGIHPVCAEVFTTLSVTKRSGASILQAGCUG
Description: (§1) Small molecule inhibition of recombinant thioredoxin reductase 1 (TrxR1) and gluthathione reductase (GR) was examined in 96-well plate format. 15 nM TrxR1 was incubated in the presence of 250 μM NADPH, 0.1 mg/ml BSA, and various concentrations of the compound of Example 1 (1% DMSO final) in 50 mM Tris (pH 7.5) and 2 mM EDTA buffer for 15 minutes. Following the incubation period, 2.5 mM DTNB was added to each well and the change in O.D. at 412 nm was followed. Percent activity was determined using DMSO vehicle and no TrxR1 (blank) controls. 2 nM GR was incubated in the presence of 250 μM NADPH, 0.1 mg/ml BSA, and various concentrations of compounds (1% DMSO final) in 50 mM Tris (pH 7.5) and 2 mM EDTA buffer for 15 minutes. Following the incubation period, 1 mM GSSG was added to each well and the change in O.D. at 340 nm was followed. Percent activity was determined using DMSO vehicle and no GR (blank) controls.

[2] = target: T2, gluthathione reductase (GR) (Homo sapiens, UniProt P00390); assay: Inhibition of recombinant GR (GSSG assay); format: biochemical; details: 2 nM GR, 250 μM NADPH, 15 minutes incubation, 1 mM GSSG, O.D. at 340 nm
T2 sequence (P00390 44-522): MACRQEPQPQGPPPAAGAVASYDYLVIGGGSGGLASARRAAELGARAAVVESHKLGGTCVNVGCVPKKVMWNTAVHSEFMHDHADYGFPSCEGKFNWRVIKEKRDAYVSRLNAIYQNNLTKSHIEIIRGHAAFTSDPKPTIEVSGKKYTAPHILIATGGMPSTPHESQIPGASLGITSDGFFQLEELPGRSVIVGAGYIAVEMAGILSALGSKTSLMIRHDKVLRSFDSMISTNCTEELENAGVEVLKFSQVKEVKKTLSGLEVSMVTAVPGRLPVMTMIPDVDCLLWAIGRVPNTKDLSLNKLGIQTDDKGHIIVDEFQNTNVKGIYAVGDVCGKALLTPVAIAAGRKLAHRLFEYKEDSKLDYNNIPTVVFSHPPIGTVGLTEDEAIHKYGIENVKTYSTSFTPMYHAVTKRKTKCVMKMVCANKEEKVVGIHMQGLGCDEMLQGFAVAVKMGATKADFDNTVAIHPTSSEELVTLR
Description: as §1

## O=c1c(Cl)c(Cl)cnn1Cc1nnc(-c2ccc(Cl)cc2)o1 [Example 1, 4,5-dichloro-2-((5-(4-chlorophenyl)-1,3,4-oxadiazol-2-yl)methyl)pyridazin-3-one]
[1]
  IC50: 1850 nM
[2]
  IC50: > 100 µM
